Experimental findings from US20220339160A1, “ADENOSINE RECEPTOR ANTAGONIST” (priority 2019, published 2022) are described below.

Test [1] has as its target A2A receptor (Homo sapiens, UniProt P29274). In words: A2A receptor antagonist functional assay (cAMP, A2A cell line). Type of test: cell-based. How it is done:
(§1) A2a/A2B Receptor Antagonist Functional Assay Test:
(§2) The A2A cell line was derived from PerkinElmer (Product ID: ES-011-C); the A2B cell line was derived from PerkinElmer (Product ID: ES-013-C). The experimental procedure was referred to ACS Medicinal Chemistry Letters (2011) 2, 213-218; the specific test was completed by Pharmaron Beijing Co., Ltd. with the following steps: 10 nL of compound stock in DMSO (10 mM) followed by 10 μL of A2A or A2B cell suspension (30000 cells/mL) were transferred to assay wells of a 384-well plate at room temperature and incubated for 20 minutes at room temperature. The corresponding amount of 5′-N-ethylcarboxamidoadenosine at EC80 activation concentration was transferred to each test well, and incubated for another 30 minutes at 37° C., 5% CO2, 95% humidity, then Eu-cAMP tracer working solution and Ulight-anti-cAMP working solution were added to the cell culture plate at 5 uL/well in sequence, and the cell plate fluorescence was read with Envision (excitation wavelength: 320 nm, emission wavelength: 665 nm and 615 nm). The corresponding inhibition rate in each well was obtained according to the following formula, and a sigmoidal dose-inhibition rate curve was plotted using a non-linear regression model to calculate the IC50 value.

For test [2], the target named is T1, A2B receptor (Homo sapiens, UniProt P29275).
T1 sequence (P29275 1-332): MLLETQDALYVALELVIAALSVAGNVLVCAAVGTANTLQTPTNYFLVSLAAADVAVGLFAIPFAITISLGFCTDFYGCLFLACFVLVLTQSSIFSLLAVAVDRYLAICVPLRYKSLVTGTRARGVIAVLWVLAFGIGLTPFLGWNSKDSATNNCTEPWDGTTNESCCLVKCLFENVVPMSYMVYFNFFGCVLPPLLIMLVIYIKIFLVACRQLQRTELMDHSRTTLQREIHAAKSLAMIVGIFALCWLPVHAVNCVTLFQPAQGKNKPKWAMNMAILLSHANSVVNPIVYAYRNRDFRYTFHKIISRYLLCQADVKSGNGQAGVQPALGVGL
Description: cell-based. The protocol: as §1
as §2, with “The experimental procedure was referred to ACS Medicinal Chemistry Letters (2011) 2, 213-218; the specific test was completed by Pharmaron Beijing Co., Ltd. with the following steps: 10 nL of compound stock in DMSO (10 mM) followed by 10 μL of A2A or A2B cell suspension (30000 cells/mL) were transferred to assay wells of a 384-well plate at room temperature and incubated for 20 minutes at room temperature.” left out

Setting [3] is: A2A cell line (PerkinElmer ES-011-C), 5'-N-ethylcarboxamidoadenosine at EC80, cAMP readout, read-out: A2A Antagonistic function IC50.
Setting [4] is: A2B cell line (PerkinElmer ES-013-C), 5'-N-ethylcarboxamidoadenosine at EC80, cAMP readout, read-out: A2B Antagonistic function IC50.

Read-outs that look alike come from different tables or passages of the source.

A2A receptor, sequence (P29274 whole entry): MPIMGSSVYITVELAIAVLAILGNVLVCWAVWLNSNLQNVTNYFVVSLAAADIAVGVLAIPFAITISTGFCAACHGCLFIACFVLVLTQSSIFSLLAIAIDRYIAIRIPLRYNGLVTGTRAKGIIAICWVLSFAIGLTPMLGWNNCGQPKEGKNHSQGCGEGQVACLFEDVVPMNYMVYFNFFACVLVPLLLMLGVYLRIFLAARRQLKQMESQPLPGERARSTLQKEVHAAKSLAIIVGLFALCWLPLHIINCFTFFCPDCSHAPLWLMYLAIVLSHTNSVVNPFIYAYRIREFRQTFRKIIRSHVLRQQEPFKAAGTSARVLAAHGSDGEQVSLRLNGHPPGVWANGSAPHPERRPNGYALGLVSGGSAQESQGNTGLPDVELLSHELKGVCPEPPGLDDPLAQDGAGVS

A word on the IC50: it is the concentration needed to halve the response being measured. For the compound `Cc1ccc(-c2nc(N)nc3c(Cc4ccc(F)cc4)cnn23)o1` [Compound 1], the half-maximal inhibitory concentration (IC50) in test [1] was determined as 3.3 nM; in test [2] it was 16 nM.

Turning to `COCc1cccc(Cc2cnn3c(-c4ccc(C)o4)nc(N)nc23)n1` [Compound 2], the results for the IC50 in test [1] (setting [3]) and in test [2] were 1.8 nM and 25 nM, respectively.

Take `COCc1cccc(Cc2cnn3c(-c4cccs4)nc(N)nc23)n1` [Compound 3]: 96 nM corresponded to half-maximal inhibition in test [1] (IC50).

In turn, `COCc1cccc(Cc2cnn3c(-n4ccc(C)n4)nc(N)nc23)n1` [Compound 4] returned an IC50 in test [1] of 17 nM.

As to `Cc1ccc(-c2nc(N)nc3c(Cc4cccc(CO)n4)cnn23)o1` [Compound 5], the IC50 turned out to be 5.3 nM in test [1] (setting [3]) and 16.7 nM in test [2].

In turn, `Cc1ccc(-c2nc(N)nc3c(Cc4cccc(CBr)n4)cnn23)o1` [Compound 6] returned an IC50 in test [1] of 10.2 nM.

Consider `COCCOCc1cccc(Cc2cnn3c(-c4ccc(C)o4)nc(N)nc23)n1` [Compound 7], for which the half-inhibitory concentration (IC50) in test [1] (read-out: A2A Antagonistic function IC50) turned out to be 7.1 nM; in test [2] it was 103 nM.

As for `COCCNCc1cccc(Cc2cnn3c(-c4ccc(C)o4)nc(N)nc23)n1` [Compound 8], the IC50 amounted to 31 nM in test [1] and 117 nM in test [2] (setting [4]).

On to `Cc1ccc(-c2nc(N)nc3c(Cc4cccc(COC5CC5)n4)cnn23)o1` [Compound 9], for which the figures for the IC50 in test [1] and in test [2] (setting [4]) were 3.6 nM and 51 nM, respectively.

As for `Cc1ccc(-c2nc(N)nc3c(Cc4ccc(F)cc4F)cnn23)o1` [Compound 10], the IC50 in test [1] worked out at 5 nM; in test [2] (setting [4]), 16.4 nM.

For `Cc1ccc(-c2nc(N)nc3c(Cc4ccc(F)cc4C)cnn23)o1` [Compound 11], the values for the IC50 in test [1] and in test [2] (setting [4]) were 39 nM and 420 nM, respectively.

Consider `Cc1ccc(-c2nc(N)nc3c(Cc4c(F)cc(F)cc4F)cnn23)o1` [Compound 12], for which the IC50 in test [1] came to 1.5 nM; in test [2] (setting [4]), 3.8 nM.

`Cc1ccc(-c2nc(N)nc3c(CC4CCCCC4)cnn23)o1` [Compound 13] gave an IC50 in test [1] of 5.7 nM.

`Cc1ccc(-c2nc(N)nc3c(CC4CCCC4)cnn23)o1` [Compound 14] registered a concentration for half-maximal inhibition (IC50) in test [1] of 10.4 nM.

For the compound `Cc1ccc(-c2nc(N)nc3c(CC4CCC4)cnn23)o1` [Compound 15], the IC50 in test [1] is 16 nM.

Consider `COc1cccc(Cc2cnn3c(-c4ccc(C)o4)nc(N)nc23)n1` [Compound 16], for which the IC50 in test [1] turned out to be 2.3 nM; in test [2] (setting [4]), 18.6 nM.

For the compound `Cc1ccc(-c2nc(N)nc3c(Cc4cccc(CO[C@H]5CCOC5)[n+]4[O-])cnn23)o1` [Compound 17], the 50% inhibitory concentration (IC50) in test [1] was 90 nM; in test [2] (setting [4]), 1030 nM.

Consider `Cc1ccc(-c2nc(N)nc3c(Cc4cccc(CO[C@H]5CCOC5)n4)cnn23)o1` [Compound 18], for which the results for the IC50 in test [1] (setting [3]) and in test [2] were 9.1 nM and 108 nM, respectively.

Turning to `Cc1ccc(-c2nc(N)nc3c(Cc4cccc(C(C)(C)O)n4)cnn23)o1` [Compound 19], the IC50 in test [1] was determined as 1.7 nM; in test [2], 70.5 nM.

Consider `Cc1ccc(-c2nc(N)nc3c(Cc4cccc(NCc5ccccc5)n4)cnn23)o1` [Compound 20], for which the IC50 in test [1] was 5.5 nM; in test [2], 26 nM.

In the case of `COCCNc1cccc(Cc2cnn3c(-c4ccc(C)o4)nc(N)nc23)n1` [Compound 21], the IC50 in test [1] worked out at 4.7 nM; in test [2] (setting [4]), 36 nM.

Take `Cc1ccc(-c2nc(N)nc3c(Cc4cccc(N)n4)cnn23)o1` [Compound 22]: the figures for the half-maximal inhibitory concentration (IC50) in test [1] and in test [2] (setting [4]) were 5.8 nM and 1.6 nM, respectively.

Regarding `Nc1cccc(Cc2cnn3c(-c4ccco4)nc(N)nc23)n1` [Compound 23], the results for the IC50 in test [1] and in test [2] (setting [4]) were 46 nM and 13 nM, respectively.

With `Cc1ccc(-c2nc(N)nc3c(Cc4cccc(N)c4)cnn23)o1` [Compound 24], the IC50 is 3 nM in test [1] and 7.9 nM in test [2] (setting [4]).

For the compound `Nc1cccc(Cc2cnn3c(-c4ccco4)nc(N)nc23)c1` [Compound 25], the IC50 in test [1] is 35 nM; in test [2] (setting [4]) it was 60 nM.

With `Cc1ccc(-c2nc(N)nc3c(Cc4ccc(N)cc4)cnn23)o1` [Compound 26], the IC50 in test [1] amounted to 17.4 nM; in test [2] (setting [4]), 2.7 nM.

For the compound `Cc1ccc(-c2nc(N)nc3c(Cc4ccccc4N)cnn23)o1` [Compound 27], the values for the concentration for half-maximal inhibition (IC50) in test [1] and in test [2] (setting [4]) were 1.9 nM and 9.7 nM, respectively.

For `Cc1ccc(-c2nc(N)nc3c(Cc4cc(N)c(F)cc4F)cnn23)o1` [Compound 28], the half-maximal inhibitory concentration (IC50) in test [1] came to 1.6 nM; in test [2] (setting [4]), 7.7 nM.

In the case of `Cc1ccc(-c2nc(N)nc3c(Cc4ccc(N)c(C)c4)cnn23)o1` [Compound 29], the IC50 in test [1] is 5.5 nM; in test [2] (setting [4]) it was 15.3 nM.

On to `Cc1ccc(-c2nc(N)nc3c(Cc4ccc(N)c(C)c4)c(C)nn23)o1` [Compound 30], for which, in test [1], the IC50 stood at 5 nM.

In the case of `Cc1ccc(N)c(Cc2cnn3c(-c4ccc(C)o4)nc(N)nc23)c1` [Compound 44], the IC50 is 6.2 nM in test [1] and 155 nM in test [2] (setting [4]).

`Cc1ccc(-c2nc(N)nc3c(Cc4cccc(N)c4)c(C)nn23)o1` [Compound 45]: the half-maximal inhibitory concentration (IC50) in test [1] stood at 1.9 nM; in test [2] (setting [4]) it was 6.2 nM.

`Cc1ccc(-c2nc(N)nc3c(Cc4cccc(N)c4)c(Cl)nn23)o1` [Compound 46]: the 50% inhibitory concentration (IC50) is 1.5 nM in test [1] and 4.6 nM in test [2] (setting [4]).

On to `Cc1ccc(-c2nc(N)nc3c(Cc4cccc(N)c4)c(F)nn23)o1` [Compound 47], for which the results for the IC50 in test [1] and in test [2] (setting [4]) were 1.4 nM and 4 nM, respectively.

In the case of `Cn1ccc(-c2nc(N)nc3c(Cc4cccc(N)c4)cnn23)n1` [Compound 48], the results for the concentration for half-maximal inhibition (IC50) in test [1] and in test [2] (setting [4]) were 29.1 nM and 83.5 nM, respectively.
